In US10968222B2, “2-azabicyclo hexane JAK inhibitor compound” (THERAVANCE BIOPHARMA R&D IP, LLC, priority 2018, dated 2021):

Columns and labels:
[1] = tested on: IL-13 induced STAT6 phosphorylation in BEAS-2B human lung epithelial cells; assay: Inhibition of IL-13 stimulated pSTAT6 in BEAS-2B cells; assay type: cell-based; details: AlphaScreen, read-out: pIC50, inhibition of IL-13 stimulated pSTAT6 (converted)
Experimental: The AlphaScreen JAKI cellular potency assay was carried out by measuring interleukin-13 (IL-13, R&D Systems) induced STAT6 phosphorylation in BEAS-2B human lung epithelial cells (ATCC). The anti-STAT6 antibody (Cell Signaling Technologies) was conjugated to AlphaScreen acceptor beads (Perkin Elmer), while the anti-pSTAT6 (pTyr641) antibody (Cell Signaling Technologies) was biotinylated using EZ-Link Sulfo-NHS-Biotin (Thermo Scientific).
BEAS-2B cells were grown at 37° C. in a 5% CO2 humidified incubator in 50% DMEM/50% F-12 medium (Life Technologies) supplemented with 10% FBS (Hyclone), 100 U/mL penicillin, 100 μg/mL streptomycin (Life Technologies), and 2 mM GlutaMAX (Life Technologies). On day 1 of the assay, cells were seeded at a 7,500 cells/well density in white poly-D-lysine-coated 384-well plates (Corning) with 25 μL medium, and were allowed to adhere overnight in the incubator. […] After a minimum of 2 h incubation, the assay plates were read on the EnVision plate reader. AlphaScreen luminescence signals were recorded and utilized to calculate the percent inhibition values based on DMSO and background controls.
For dose-response analysis, percent inhibition data were plotted vs. compound concentrations, and IC50 values were determined from a 4-parameter robust fit model with the Prism software. Results may also be expressed as the negative logarithm of the IC50 value, pIC50.

GSK3B = target: T1, GSK3B (Homo sapiens, UniProt P49841); assay: Kinome screen, GSK3B; assay type: binding; details: screened at 1 μM
T1 construct: made in house; host or cells: E. coli BL21-derived host (T7 phage) or HEK-293 cells
T1 sequence (P49841 whole entry): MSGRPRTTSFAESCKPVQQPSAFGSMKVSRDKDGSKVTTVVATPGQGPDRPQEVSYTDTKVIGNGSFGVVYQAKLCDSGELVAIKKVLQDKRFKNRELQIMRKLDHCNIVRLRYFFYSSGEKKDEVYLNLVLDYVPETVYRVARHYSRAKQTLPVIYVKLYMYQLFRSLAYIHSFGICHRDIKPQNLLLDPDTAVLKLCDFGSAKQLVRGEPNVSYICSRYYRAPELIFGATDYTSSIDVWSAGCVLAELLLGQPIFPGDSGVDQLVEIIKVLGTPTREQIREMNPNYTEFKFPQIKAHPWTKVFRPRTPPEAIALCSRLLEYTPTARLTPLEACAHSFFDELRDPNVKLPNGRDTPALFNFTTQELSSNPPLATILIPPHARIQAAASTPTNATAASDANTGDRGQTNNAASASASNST
Experimental: Compounds 1 and C-1 were screened against other kinases to evaluate their selectivity profile.
Kinase-tagged T7 phage strains were grown in parallel in 24-well blocks in an E. coli host derived from the BL21 strain. E. coli were grown to log-phase and infected with T7 phage from a frozen stock (multiplicity of infection=0.4) and incubated with shaking at 32° C. until lysis (90-150 minutes). The lysates were centrifuged (6,000×g) and filtered (0.2 μm) to remove cell debris. The remaining kinases were produced in HEK-293 cells and subsequently tagged with DNA for qPCR detection.
Streptavidin-coated magnetic beads were treated with biotinylated small molecule ligands for 30 minutes at room temperature to generate affinity resins for kinase assays. The liganded beads were blocked with excess biotin and washed with blocking buffer (SeaBlock (Pierce), 1% BSA, 0.05% Tween 20, 1 mM DTT) to remove unbound ligand and to reduce non-specific phage binding. Binding reactions were assembled by combining kinases, liganded affinity beads, and test compounds in 1× binding buffer (20% SeaBlock, 0.17×PBS, 0.05% Tween 20, 6 mM DTT). Test compounds were prepared as 40× stocks in 100% DMSO and directly diluted into the assay. All reactions were performed in polypropylene 384-well plates in a final volume of 0.04 ml. […] The kinase concentration in the eluates was measured by qPCR. […]

CCc1cc(O)c(F)cc1-c1cc(F)c2c(-c3nc4c([nH]3)CCN(C(=O)[C@]35C[C@H]3CCN5)C4)n[nH]c2c1 [Compound 1, (1S,5R)-2-azabicyclo[3.1.0]hexan-1-yl(2-(6-(2-ethyl-5-fluoro-4-hydroxyphenyl)-4-fluoro-1H-indazol-3-yl)-6,7-dihydro-3H-imidazo[4,5-c]pyridin-5(4H)-yl)methanone]
IC50 [1]: 10 nM
inhibition at 1 µM (GSK3B): 32%
